# Reference: article PMC12267067, “Targeting GRPR for sex hormone-dependent cancer after loss of E-cadherin” (Nature, 2025)
# No end group written: not given here.
# Experiments:
# [1] = tested on: human melanoma cell lines (MDA-MB-435S, 501mel); test: Cell growth (cell counting), human melanoma cell lines; assay type: cell-based; conditions: 48 h
# Experimental: Six-well tissue-culture plates were seeded with 3 × 10^5 melanoma cells in complete medium. After 24 h, the medium was replaced by low-serum medium (0.5% for murine melanoma cell lines and 1% for human melanoma cells) and the cells were incubated for a further 18 h before stimulation with 10 nM GRP (4011670 bachem) and/or 1 µM RC (R9653, Sigma-Aldrich) for 48 h. The plates were trypsinized just after stimulation or 48 h later and the cells were counted. For the MTT assay, 10,000 cells were seeded per well in 96-well plates. After 24 h, cells were starved overnight and then treated with 10 nM GRP and/or 1 µM RC for 48 h in low-serum medium (0.5% FBS). Next, MTT (M5655, Sigma-Aldrich) was added to the wells to a final concentration of 0.5 mg ml^−1 and the plates were incubated for 3 h. The medium was removed and formazan crystals dissolved in 200 µl DMSO. The absorbance was read at 570 nm using a LUMIstar Omega […] (BMG Labtech). All growth experiments were done using three technical replicates and three biological replicates. For the clonogenic assay, six-well tissue-culture plates were seeded with 500 cells in complete medium. After 10 days (20 days for 1181), colonies were fixed with 4% PFA for 15 min and stained with 10% crystal violet in ethanol for 20 min and counted in images using ImageJ software. Experiments were done in triplicate.
# [2] = tested on: human melanoma cell lines (MDA-MB-435S, Dauv-1, 501mel-GRPR); test: Matrigel invasion assay, human melanoma cells; assay type: cell-based; conditions: 10 nM GRP and/or 1 µM RC-3095, 24 h, 1% FCS
# Experimental: Matrigel invasion assays were done in transwell plates with 8.0-µm pores (353097, Falcon) coated with 100 µl of 200 µg ml^−1 Matrigel. Depending on the experiments, cells were seeded directly or 24 h after transfection in low-serum medium (0.5% FCS for murine cells and 1% for human cell lines) with 10 nM GRP, 1 µM RC-3095, and/or 1 µM IC 182,780, or in 10% FCS. Then, 24 hours after stimulation, inserts were washed with PBS and non-invading cells were removed. Cells in the inserts were fixed in methanol at −20 °C overnight. The inserts were rinsed and the membrane carefully removed using a sharp scalpel. The membrane was mounted in prolong glass DAPI (1.5 µg ml^−1). Assays were performed in triplicate and automatic counting of invading cells was done using an Image/Fiji macro (10.5281/zenodo.14509394). Sequences of siRNAs are given in Supplementary Table 11.
# [3] = tested on: ECAD in 501mel cells with and without GRPR; test: Western blot of ECAD with and without GRP; assay type: cell-based, human; conditions: 501mel cells expressing GRPR, 10 nM GRP
# Experimental: Whole-cell lysates were prepared and analysed as described previously. The primary antibodies used were: E-cadherin (610182, BD Transduction Laboratories, dilution 1/1,000); ERα (MA1-27107, Invitrogen, dilution 1/500); YAP (14074, Cell Signaling, dilution 1/1,000); β-actin (A5441, Sigma, dilution 1/5,000); and vinculin (4650, Cell Signaling, dilution 1/5,000). All raw data are provided in Supplementary Fig. 1.
# [4] = tested on: Yap1 in Grpr+ mouse melanoma cells (1057); test: YAP1 nuclear localization (immunofluorescence); assay type: cell-based; conditions: 1057 cells, 1 h, 10 nM GRP and/or 1 µM RC
# Experimental: Cells were seeded on coverslips and cultivated until 100% confluence was achieved. After 24 h of starvation in 0.5% FCS for murine melanoma cell lines and 1% FCS for human melanoma, the medium was complemented with 10 nM GRP and/or 1 µM RC for 1 h. Cells were fixed with 4% PFA for 15 min and blocked with 5% normal goat serum and 0.3% Triton X-100 in PBS. Cells were incubated overnight at 4 °C with anti-YAP D8H1X antibody (14074, cell Signaling, 1/100 dilution) in 1% BSA and 0.3% Triton X-100 followed by incubation for 1.5 h at room temperature with goat anti-rabbit Alexa fluor 594 (A-11012, Invitrogen, 1/500 dilution). Coverslips were mounted with Prolong Gold containing 1.5 µg ml^−1 DAPI (P36934, Invitrogen). Images were acquired using an inverted SP8 Leica confocal microscope (Leica Microsystem). YAP1 localization was evaluated using ImageJ Software.
# [5] = tested on: serine/threonine kinases in 1057 cells; test: Kinase assay (PamGene STK PamChip); assay type: cell-based, mouse; conditions: 10 nM GRP, 15 min
# Experimental: Serine/threonine and tyrosine kinase activity were determined using STK PamChips (87102 PamGene International). All assays were done according to the manufacturer’s protocol. In brief, cells were seeded to 70% confluence and starved overnight the day after. Then, the medium was replaced by medium containing vehicle (0.1% DMSO) or 10 nM GRP and/or 1 µM RC and the cells incubated for 15 min. Cells were rinsed twice in PBS and then lysed in M-Per buffer (78503, ThermoFisher Scientific) containing Halt Phosphatase Inhibitor (78428, ThermoFisher Scientific) and Halt Protease Inhibitor (78437, ThermoFisher Scientific), both diluted 1:100. The lysates were immediately snap-frozen. Kinase activity was determined using Pamstation PS12 and 1 µg protein for the STK chips, according to the manufacturer’s protocol. The data were analysed using BioNavigator software (PamGene International), batch corrected using ComBat[71] and normalized using VSN[72]. Kinase activity was assessed using the 2018 version of the UKA tool using basic parameters (Scan rank from 4 to 12, 500 permutations, 90% homology, equivalent weight for each database, minimal prediction score of 300). The UKA tool infers the active kinase from the differentially phosphorylated peptides using databases and predicted interactions (PhosphoNet database).
# [6] = tested on: mouse melanoma cells (1057, 1014, 1062); test: Anoikis assay, mouse melanoma cells; assay type: cell-based; conditions: 48 h
# Experimental: Six-well plates were coated with poly-HEMA to prevent cell attachment to the well surface. Cells were seeded in low-serum medium containing 10 nM GRP and/or 1 µM RC. Then, 48 hours after cell seeding, cells were collected and washed with ice-cold PBS twice and resuspended in annexin V binding buffer (556454, BD Biosciences) and incubated at room temperature in the dark with 7-amino-actinomycin D (7-AAD, 559925, BD Biosciences) and annexin-V for 15 min. Annexin V was coupled to FITC (556420, BD Biosciences) for the 1057 and MDA-MB-435S cell lines and to PE (556421, BD Biosciences) for the other cell lines. Cells were sorted using a FACS LSRFortessa (BD Biosciences) to determine the percentage of annexin V- and/or 7-AAD-positive cells using a 488 nm laser for annexin V-FITC and annexin V-PE and a 675 nm laser for7-AAD. All quantification was performed using Flow-Jo.
substance,measurement,setting,value
"GRP: GRPR's natural agonist, endogenous ligand of GRPR (4011670 bachem) (VPLPAGGGTVLTKMYPRGNHWAVGHLM; not fully specified; ends and bridges not checked; UniProt P07492 24-50, looked up)","cell growth, GRPR-negative human cells","[1]; 501mel, 10 nM GRP, low serum",had no effect
same,"cell growth, GRPR-positive human line","[1]; MDA-MB-435S, 10 nM GRP and/or 1 µM RC, low serum 1%",promoted growth
same,"invasion (number of invading cells), GRPR-positive human lines",[2],promoted
same,ECAD protein level,[3],lower
same,YAP1 nuclear localization,[4],increased
same,kinases activated following GRPR activation,[5],"primarily triggered protein kinase C (PKC) and, to a lesser extent, PKAα and PRKX"
same,"anoikis resistance (apoptotic cells without matrix attachment), GRPR+ mouse cells","[6]; 1057, 10 nM GRP and/or 1 µM RC, poly-HEMA, low serum, annexin V/7-AAD",promoted
same,"anoikis resistance, Grpr-negative mouse cells","[6]; male ∆Ecad (1062) and female Ecad (1014) cells, 10 nM GRP",did not promote anoikis resistance
